{
  "source": "patent US20200187507A1",
  "about": "“INOCULANTS INCLUDING PLANT GROWTH PRODUCING RHIZOBACTERIA (PGPR) AND INSECTIDES FOR PROMOTING PLANT GROWTH AND HEALTH” (Auburn University, priority 2018, published 2020)",
  "key": {"[1]": {"tested_on": "Bacillus pumilus AP 7", "assay": "Bacterial strains and insecticide compatibility (mixed in tubes, CFU counts)", "type": "cell-based", "settings": "Example 1; mixed for 2 wk at label rates", "protocol": "The strains of Blend 20, each with a minimum concentration of 1×10^8 CFU per ml were individually evaluated for their compatibility with commonly used liquid insecticides. The strains were evaluated individually to make recovery of each bacterium apparent, as the colony morphologies are similar. Freshly prepared bacteria stock solutions were evaluated for their ability to survive being ‘tank’ mixed with insecticides in 50 ml centrifuge tubes with three different insecticides mixed together for 1 h, 24 h, and 1 wk, and 2 wk at 25 s ° C. under ambient light. The bacteria were evaluated for compatibility with insecticides which included three chemical groups: neonicotinoids, phenylpyrazoles, and pyrethroids. The pesticides evaluated were bifenthrin (Talstar Pro, FMC Corporation, Philadelphia, Pa.), fipronil (Termidor SC, BASF Corporation, Florham Park, N.J.), imidacloprid (Merit 2F, Bayer, Research Triangle Park, N.C.). […] Bifenthrin and fipronil were evaluated at high and low label rates. […] Bacterial populations (number of colony forming units [CFU]) in the suspensions were determined by plating 50 μl of the 10^−5 serial dilutions onto three TSA plates, incubating plates for 24 h and then counting the number of bacterial colonies on each plate.\nBacterial strains from multiple genera with known populations (minimum of 1×10^8 colony forming units (CFU)/ml (0.03 oz)) were evaluated individually for their compatibility with commonly turfgrass insecticides. […]\nThe strains that comprise Blend 20, each with aminimum concentration of 1×10^8 CFU per ml, were individually evaluated for their compatibility with commonly used liquid neonicotinoid insecticides. The strains within the blend were evaluated individually to make recovery of each bacterium apparent, as the colony morphologies are similar. Freshly prepared bacteria stock solutions were evaluated for survival when mixed with three different insecticides mixed in separate 50 mL centrifuge tubes for 1 and 24 h, and 1 and 2 wk at 25° C. under ambient light. […]"}, "[2]": {"tested_on": "tawny mole crickets", "assay": "Field plots: tawny mole cricket damage ratings (Cobb and Mack)", "type": "in vivo, Neoscapteriscus vicinus Scudder", "settings": "scale 0-9", "protocol": "On 26 Mar. 2017 field plots were established at the Auburn University Turfgrass Research Unit, Auburn, Ala. over hybrid and common bermudagrass tawny mole cricket infested areas in a Marvyn loamy sand. Plots were 3 m×2 m with at least 2 m separating plots. Field plots were assessed for mole cricket damage based on the rating system of Cobb and Mack (26). A 1 m×1 m frame divided into a grid with 9 subsections was used to score the plots on a scale of 0-9, where 0 indicates no damage and 9 indicates activity in each section. After the initial assessment, plots were assigned to a treatment group based on damage ratings. […] Damage assessments were taken from seven locations (center, top left, top right, bottom left, bottom right, middle left, and middle right), with one location sampled during each damage assessment period for all treatments. The experiment evaluated four treatments, PGPR-treated (Blend 20), bifenthrin-treated, PGPR+bifenthrin-treated, and non-treated control. On 27 Mar. 2017 (Day 0) and 23 April (Day 27) plots were treated with a backpack sprayer. Bacteria-treated plots received 3 L (500 ml/m^2) freshly-prepared aqueous bacterial suspension of 1×10^7 CFU per ml. Bifenthrin-treated plots were treated at a rate of 29.6 ml per 92.9 m^2. The sprayer applied 244 ml of this mixture per plot. PGPR+ bifenthrin plots were treated with the 3 L of bacteria and 244 ml of bifenthrin mixed together in the same tank. The non-treated plots were treated with 3 L of distilled water coincident with treatment of the other plots. After treating, the plots were hand watered with 76.2 L of water (1.27 cm) to move the treatments into the root zone. The experiment was replicated six times for each treatment.\nTop growth (fresh and dry mass) in the cylinder trials were analyzed separately using repeated measures of multivariate analysis of covariance (MANCOVA) due to trial being a significant factor (P<0.05, JMP Version 13. SAS Institute Inc., Cary, N.C., 1989-2007). Root fresh and dry mass, and length were analyzed using orthogonal contrasts (P<0.05, JMP Version 13. SAS Institute Inc., Cary, N.C., 1989-2007). The number of mole crickets recovered and mole cricket weights from each treatment were used as covariants. Mole cricket weights were analyzed using analysis of variance (ANOVA), Student's t-test. The number of mole crickets recovered and mole cricket weights within treatments were not significant in either PVC arena trial. For the field trial, LSMeans, Student's t-Test (LSD, P<0.05) was used to compare each sampling period's mole cricket damage ratings."}, "[3]": {"tested_on": "Bacillus sphaericus AP 282", "assay": "Bacterial strains and insecticide compatibility (mixed in tubes, CFU counts)", "type": "cell-based", "settings": "Example 1; mixed for 2 wk at label rates", "protocol": "(§1) The strains of Blend 20, each with a minimum concentration of 1×10^8 CFU per ml were individually evaluated for their compatibility with commonly used liquid insecticides. The strains were evaluated individually to make recovery of each bacterium apparent, as the colony morphologies are similar. Freshly prepared bacteria stock solutions were evaluated for their ability to survive being ‘tank’ mixed with insecticides in 50 ml centrifuge tubes with three different insecticides mixed together for 1 h, 24 h, and 1 wk, and 2 wk at 25 s ° C. under ambient light. The bacteria were evaluated for compatibility with insecticides which included three chemical groups: neonicotinoids, phenylpyrazoles, and pyrethroids. The pesticides evaluated were bifenthrin (Talstar Pro, FMC Corporation, Philadelphia, Pa.), fipronil (Termidor SC, BASF Corporation, Florham Park, N.J.), imidacloprid (Merit 2F, Bayer, Research Triangle Park, N.C.). While Termidor SC is not used on golf courses, it was selected for convenience because the active ingredient (Fipronil) is formulated as a granular product and widely used for mole cricket management (24). Bacteria and pesticide solutions were prepared based on the label recommendations for volume of area covered (bifenthrin, imidacloprid) or amount of active ingredient per volume needed (fipronil). Bifenthrin and fipronil were evaluated at high and low label rates. Bifenthrin was mixed at a rate of 29.6 and 14.8 ml per 92.9 m^2 (7.9% active ingredient, 302 g per 3,785 ml). Imidacloprid was mixed a rate of 17 ml per 92.9 m^2 (21.4%, 907 g per 3,785 ml). Fipronil was prepared at 47.3 (0.125% dilution) and 23.65 ml (0.06% dilution) per 3,785 ml (9.1% active ingredient, 363 g per 3,785 ml). After the allotted time, the centrifuge tubes were vigorously shaken to evenly distribute bacterial cells before serial 10-fold dilutions. Serial dilutions were made of each bacterial suspension into sterile water blanks to a final dilution of 10^−5. Bacterial populations (number of colony forming units [CFU]) in the suspensions were determined by plating 50 μl of the 10^−5 serial dilutions onto three TSA plates, incubating plates for 24 h and then counting the number of bacterial colonies on each plate.\n(§2) The strains that comprise Blend 20, each with aminimum concentration of 1×10^8 CFU per ml, were individually evaluated for their compatibility with commonly used liquid neonicotinoid insecticides. The strains within the blend were evaluated individually to make recovery of each bacterium apparent, as the colony morphologies are similar. Freshly prepared bacteria stock solutions were evaluated for survival when mixed with three different insecticides mixed in separate 50 mL centrifuge tubes for 1 and 24 h, and 1 and 2 wk at 25° C. under ambient light. Bacteria and pesticide solutions were prepared based on the label recommendations for volume of area covered. The pesticides evaluated were imidacloprid (Ferti-lome® Tree and Shrub Systemic Insect Drench, 1.47% active ingredient, Voluntary Purchasing Groups, Inc., Bonham, Tex., USA), imidacloprid (Merit® 2F, 21.4% active ingredient, Bayer Environmental Sciences, Research Triangle Park, N.C., USA), and imidacloprid and clothianidin (Bayer Advanced 12 Month Tree and Shrub Protect and Feed II®, 0.74% imidacloprid and 0.37% clothianidin active ingredient, Bayer Environmental Sciences). The Ferti-lome® product was mixed at a rate of 89 mL of product per 3785 mL. Merit® 2F was mixed at a rate of 17 mL of product per 92.9 m^2. Bayer Advanced Tree and Shrub Protect and Feed II® was mixed at a rate of 89 mL of product per 3785 mL.\n(§3) After the allotted time, the centrifuge tubes were vigorously shaken to evenly distribute bacterial cells before completing five serial 10-fold dilutions. Serial dilutions were made of each bacterial suspension into sterile water blanks to a final dilution of 10^−5. […]"}, "[4]": {"tested_on": "Bacillus pumilus AP 18", "assay": "Bacterial strains and insecticide compatibility (mixed in tubes, CFU counts)", "type": "cell-based", "settings": "Example 1; mixed for 2 wk at label rates", "protocol": "as §1, §2, §3"}, "[5]": {"tested_on": "Pseudomonas fluorescens", "settings": "imidacloprid as cotton seed treatment; cited from earlier work"}},
  "data": [
    {"compound": "Cc1c(COC(=O)[C@@H]2[C@H](/C=C(\\Cl)C(F)(F)F)C2(C)C)cccc1-c1ccccc1", "note": "(racemic) [Bifenthrin, bifenthrin]", "values": [
      {"measurement": "bacterial populations when mixed with insecticide", "setting": "[1]", "value": "not negatively impacted"},
      {"measurement": "Mean Mole Cricket Damage Rating", "setting": "[2]; 0 days after treatment", "value": 7.52, "unit": "a"},
      {"measurement": "Mean Mole Cricket Damage Rating", "setting": "[2]; 14 days after treatment", "value": 7.95, "unit": "a"},
      {"measurement": "Mean Mole Cricket Damage Rating", "setting": "[2]; 21 days after treatment", "value": 7.14, "unit": "a"},
      {"measurement": "Mean Mole Cricket Damage Rating", "setting": "[2]; 28 days after treatment (1 after re-treatment)", "value": 1.71, "unit": "b"},
      {"measurement": "Mean Mole Cricket Damage Rating", "setting": "[2]; 33 days after treatment (5 after re-treatment)", "value": 5.10, "unit": "ab"},
      {"measurement": "Mean Mole Cricket Damage Rating", "setting": "[2]; 42 days after treatment (15 after re-treatment)", "value": 3.90, "unit": "ab"},
      {"measurement": "Mean Mole Cricket Damage Rating", "setting": "[2]; 46 days after treatment (19 after re-treatment)", "value": 1.48, "unit": "b"},
      {"measurement": "Mean Mole Cricket Damage Rating", "setting": "[2]; 50 days after treatment (23 after re-treatment)", "value": 1.86, "unit": "b"},
      {"measurement": "Mean Mole Cricket Damage Rating", "setting": "[2]; 56 days after treatment (29 after re-treatment)", "value": 4.43, "unit": "b"},
      {"measurement": "bacterial populations when mixed with insecticide", "setting": "[3]", "value": "not negatively impacted"},
      {"measurement": "bacterial populations when mixed with insecticide", "setting": "[4]", "value": "not negatively impacted"}
    ]},
    {"compound": "N#Cc1nn(-c2c(Cl)cc(C(F)(F)F)cc2Cl)c(N)c1[S+]([O-])C(F)(F)F", "note": "(stereo not shown) [Fipronil, fipronil]", "values": [
      {"measurement": "bacterial populations when mixed with insecticide", "setting": "[1]", "value": "not negatively impacted"},
      {"measurement": "bacterial populations when mixed with insecticide", "setting": "[3]", "value": "not negatively impacted"},
      {"measurement": "bacterial populations when mixed with insecticide", "setting": "[4]", "value": "not negatively impacted"}
    ]},
    {"compound": "O=[N+]([O-])NC1=NCCN1Cc1ccc(Cl)nc1", "note": "[Imidacloprid, imidacloprid]", "values": [
      {"measurement": "bacterial populations when mixed with insecticide", "setting": "[1]", "value": "not negatively impacted"},
      {"measurement": "bacterial populations when mixed with insecticide", "setting": "[3]", "value": "not negatively impacted"},
      {"measurement": "bacterial populations when mixed with insecticide", "setting": "[4]", "value": "not negatively impacted"},
      {"measurement": "Pseudomonas fluorescens populations when mixed with pesticide or extract", "setting": "[5]", "value": "negatively impacted"}
    ]},
    {"compound": "CC[C@H](C)[C@H]1O[C@]2(C=C[C@@H]1C)C[C@@H]1C[C@@H](C/C=C(\\C)[C@@H](O[C@H]3C[C@H](OC)[C@@H](O[C@H]4C[C@H](OC)[C@@H](O)[C@H](C)O4)[C@H](C)O3)[C@@H](C)/C=C/C=C3\\CO[C@@H]4[C@H](O)C(C)=C[C@@H](C(=O)O1)[C@]34O)O2", "note": "[avermectin]", "values": [
      {"measurement": "Pseudomonas fluorescens populations when mixed with pesticide or extract", "setting": "[5]", "value": "remained stable"}
    ]},
    {"compound": "O=C1C2CC=CCC2C(=O)N1SC(Cl)(Cl)Cl", "note": "(stereo not shown) [captan]", "values": [
      {"measurement": "Pseudomonas fluorescens populations when mixed with pesticide or extract", "setting": "[5]", "value": "negatively impacted"}
    ]},
    {"compound": "COC(=O)Nc1nc2ccccc2[nH]1", "note": "[carbendazim]", "values": [
      {"measurement": "Pseudomonas fluorescens populations when mixed with pesticide or extract", "setting": "[5]", "value": "not negatively impacted"}
    ]},
    {"compound": "CNC(=O)Oc1cccc2c1OC(C)(C)C2", "note": "[carbofuran]", "values": [
      {"measurement": "Pseudomonas fluorescens populations when mixed with pesticide or extract", "setting": "[5]", "value": "remained stable"}
    ]},
    {"compound": "CCOP(=S)(OCC)Oc1nc(Cl)c(Cl)cc1Cl", "note": "[chlorpyriphos]", "values": [
      {"measurement": "Pseudomonas fluorescens populations when mixed with pesticide or extract", "setting": "[5]", "value": "remained stable"}
    ]},
    {"compound": "COC(=O)N(C(=O)N1CO[C@@]2(C(=O)OC)Cc3cc(Cl)ccc3C2=N1)c1ccc(OC(F)(F)F)cc1", "note": "[indoxacarb]", "values": [
      {"measurement": "Pseudomonas fluorescens populations when mixed with pesticide or extract", "setting": "[5]", "value": "not"}
    ]},
    {"compound": "CCCC1COC(Cn2cncn2)(c2ccc(Cl)cc2Cl)O1", "note": "(stereo not shown) [propiconazole]", "values": [
      {"measurement": "Pseudomonas fluorescens populations when mixed with pesticide or extract", "setting": "[5]", "value": "negatively impacted"}
    ]},
    {"compound": "CN(C)C(=S)SSC(=S)N(C)C", "note": "[thiram]", "values": [
      {"measurement": "Pseudomonas fluorescens populations when mixed with pesticide or extract", "setting": "[5]", "value": "not negatively impacted"}
    ]},
    {"compound": "mancozeb", "values": [
      {"measurement": "Pseudomonas fluorescens populations when mixed with pesticide or extract", "setting": "[5]", "value": "negatively impacted"}
    ]}
  ]
}
